# Results as given in paper PMC5688156, “The natural product carolacton inhibits folate-dependent C1 metabolism by targeting FolD/MTHFD” (Nature Communications, 2017).
# Assays:
# [1] = target: T1, spFolD (Streptococcus pneumoniae serotype 4, UniProt Q97RI9); experiment: SPR binding to spFolD; design: species or system S. pneumoniae
# T1 construct: His-tag (TEV-cleavable, vector pHis-TEV); made in house; host or cells: E. coli BL21 (DE3)
# Experimental: (§1) All surface plasmon resonance (SPR) experiments described in this study were performed on a Biacore X100 system. Different FolDs with or without His-tag were coupled on CM5 sensor chips (GE Healthcare) by the amine coupling method using a kit from GE Healthcare Life Sciences (Freiburg, Germany). A pH scouting process was performed before protein immobilization to test the most appropriate buffer and the protein concentration for protein coupling. Finally, 20 μg/mL of ecFolD in 10 mM maleate buffer (pH 6.8), 30 μg/mL of ecFolD Q98H in 10 mM maleate buffer (pH 6.3), 40 μg/mL of ecFolD K54N in 10 mM maleate buffer (pH 5.8), 20 μg/mL of spFolD in 10 mM maleate buffer (pH 6.0) and 15 μg/mL of MTHFD2 (His-tag cleaved) in 10 mM maleate buffer (pH 6.8) were used for coupling. In the protein immobilization procedure, the contact time was calculated based on the pH scouting results to achieve ~3000–5000 relative resonance units (RU). The buffer used in the SPR assays was 1× HBS-P buffer (10 mM HEPES pH 7.4, 150 mM NaCl, 0.05% Tween 20). The 1 mM stock solution of carolacton was prepared in 1× HBS-P buffer and diluted to different concentration ranges by two-fold serial dilution. In the SPR assay, the association time was 180 s and the dissociation time was 600 s. Data analysis was performed using the Biacore evaluation software. […]
# [2] = target: T2, hsMTHFD2 (Homo sapiens, UniProt P13995); experiment: SPR binding to hsMTHFD2
# T2 construct: His-tag (vector pHis-TEV) (cleaved yes); made in house; host or cells: E. coli BL21 (DE3)
# T2 sequence (P13995 36-350): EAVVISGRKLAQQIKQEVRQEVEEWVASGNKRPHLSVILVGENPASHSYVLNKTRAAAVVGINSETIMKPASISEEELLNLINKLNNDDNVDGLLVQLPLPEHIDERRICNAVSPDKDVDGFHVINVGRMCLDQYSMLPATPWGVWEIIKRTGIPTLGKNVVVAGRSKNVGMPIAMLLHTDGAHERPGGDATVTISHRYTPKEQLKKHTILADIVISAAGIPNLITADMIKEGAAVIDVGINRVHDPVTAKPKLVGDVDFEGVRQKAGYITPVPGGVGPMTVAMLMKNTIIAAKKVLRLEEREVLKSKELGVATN
# Experimental: as §1
# [3] = test system: KB-V.1; experiment: Cytotoxicity screening, KB-V.1 (MTT); format: cell-based, human; settings: for EC50: MDR (Pgp-overexpressing) cell line, 5 d treatment, MTT
# Experimental: Half maximal effective concentrations (EC50) on human cancer cell lines were determined as described elsewhere. Human cancer cell lines were maintained as recommended by the depositor (German Collection of Microorganisms and Cell Cultures, DSMZ) and were treated for 5 d with carolacton in serial dilution. The viability of adherent cell types, HCT-116 (ACC 581), KB-3.1 (ACC-158) and KB-V.1 (ACC-149) was assessed by the addition of MTT tetrazolium salt and absorbance measurement at 570 nm. Histiocytic lymphoma U-937 cells (ACC-5) were maintained in RPMI 1640 medium and transferred into folate-free medium prior to the assay. Cell viability was determined by measuring alamar blue fluorescence emission at 590 nm. The values were referenced and EC50 values were determined by sigmoidal curve fitting. The cell lines KB-3.1 and KB-V.1 are originally derived from HeLa, whereas the latter is an MDR subclone of KB-3.1. They were used to directly compare the activity of carolacton on an mdr1 overexpressing and a sensitive cell line.
# [4] = test system: E. coli (TolC-deficient); experiment: MIC determination on E. coli (TolC-deficient); format: cell-based, Escherichia coli; settings: 16 h
# Experimental: First, the minimum inhibitory concentration (MIC) of carolacton on the E. coliΔtolC strain was determined. We started to develop the resistant mutants on CASO agar (peptone from casein 15 g/L, peptone from soybean 5 g/L, NaCl 5 g/L and agar 15 g/L; pH 7.3) plates supplemented with 4× the MIC concentration of carolacton (0.5 μg/mL) as selection pressure. Different numbers of E. coliΔtolC cells from 1 × 10^7 to 10^9 were spread on caso agar plates with carolacton. After 7 days, E. coliΔtolC colonies, which were resistant to carolacton, started to form on the agar plates. The mutants picked were inoculated in liquid MHB medium (beef extract 2 g/L, peptone from casein 17.5 g/L and corn starch 1.5 g/L, pH 7.4) supplemented with carolacton.
# The determination of MICs was performed as described elsewhere. In brief, E. coli strains were treated with carolacton in serial dilution in either the presence or absence of sub-inhibitory concentrations of polymyxin B nonapeptide (PMBN; 3 µg/mL) and/or phenylalanine–arginine β-napthylamide (PAβN; 20 µg/mL) for 16 h at 37 °C in Mueller–Hinton broth. The MICs were assessed by visual inspection of the plates.
# T1 sequence (Q97RI9 whole entry): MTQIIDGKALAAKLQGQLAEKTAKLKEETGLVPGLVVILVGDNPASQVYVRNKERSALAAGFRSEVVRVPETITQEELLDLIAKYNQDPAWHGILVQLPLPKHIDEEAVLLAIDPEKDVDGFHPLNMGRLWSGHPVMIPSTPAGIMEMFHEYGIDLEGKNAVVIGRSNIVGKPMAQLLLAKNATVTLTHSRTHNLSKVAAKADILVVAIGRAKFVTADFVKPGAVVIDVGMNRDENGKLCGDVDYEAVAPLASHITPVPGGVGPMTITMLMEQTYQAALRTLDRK
smiles,measurement,setting,value
CO[C@H](CC(=O)O)[C@@H](C)C(=O)[C@H](C)/C=C(\C)[C@H]1OC(=O)[C@H](O)[C@H](O)/C=C/[C@H](C)CCC[C@@H]1C [carolacton],Kd,[1],0.027 µM
same,koff,[1],0.0316 s⁻¹
same,koff,[2],0.0222 s⁻¹
same,Kd,[2]; 1:1 interaction model fit of association and dissociation signals,0.019 µM
same,EC50,"[3]; Homo sapiens, KB-V1, 120 h",42 µM
same,EC50,[3],41.8 ± 14.5 µM
same,Maximum inhibition,"[3]; inhibition of cell growth, 5 d",>80%
same,MIC,[4]; Escherichia coli,0.13 mg/L
same,MIC,"[4]; no additive, cation-adjusted Mueller–Hinton broth, 37 °C",0.125 mg/L
